Columns and labels:
Format in all cases: in vivo
[1] = system: crabgrass (Digitaria sanguinalis); assay: Test B postemergence; details: 13 to 15 days
Procedure, shortened: (§1)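 Preemergence: seeds planted and treated with test chemicals in non-phytotoxic solvent with surfactant; postemergence on plants 2–18 cm (1- to 4-leaf stage). Kept in greenhouse 13–15 days, then visually rated against controls on a 0 (no effect) to 100 (complete control) scale.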

[2] = system: cocklebur (Xanthium strumarium); assay: Test B postemergence; details: 13 to 15 days
Procedure, shortened: as §1

[3] = system: lambsquarters (Chenopodium album); assay: Test B postemergence; details: 13 to 15 days
Procedure, shortened: as §1

wild oat (Avena fatua) = assay: Test B postemergence; details: 13 to 15 days
Procedure, shortened: as §1

Sunflower [4] = assay: Test C preemergence; details: Rate 250 g/ha, visual evaluation after 12 to 14 days
corn (Zea mays) = assay: Test C preemergence; details: for Plant response rating (0 to 100), Corn: Rate 250 g/ha, visual evaluation after 12 to 14 days
From the text: (§2) Seeds of plant species selected from bermudagrass (Cynodon dactylon), Surinam grass (Brachiaria decumbens), cocklebur (Xanthium strumarium), corn (Zea mays), crabgrass (Digitaria sanguinalis), woolly cupgrass (Eriochloa villosa), giant foxtail (Setaria faberii), goosegrass (Eleusine indica), johnsongrass (Sorghum halepense), kochia (Kochia scoparia), lambsquarters (Chenopodium album), morningglory (Ipomoea hederacea), yellow nutsedge (Cyperus esculentus), pigweed (Amaranthus retroflexus), common ragweed (Ambrosia elatior), soybean (Glycine max) and velvetleaf (Abutilon theophrasti) were planted and treated preemergence with test chemicals formulated in a non-phytotoxic solvent mixture which included a surfactant.
(§3) At the same time, plants selected from these crop and weed species and also winter barley (Hordeum vulgare), blackgrass (Alopecurus myosuroides), canary grass (Phalaris minor), chickweed (Stellaria media), downy brome (Bromus tectorum), green foxtail (Setaria viridis), Italian ryegrass (Lolium multiflorum), wheat (Triticum aestivum), wild oat (Avena fatua) and windgrass (Apera spica-venti) were treated with postemergence applications of some of the test chemicals formulated in the same manner. Plants ranged in height from 2 to 18 cm (1- to 4-leaf stage) for postemergence treatments. Plant species in the flooded paddy test consisted of rice (Oryza saliva), smallflower flatsedge (Cyperus difformis), duck salad (Heteranthera limosa) and barnyardgrass (Echinochloa crus-galli) grown to the 2-leaf stage for testing. Treated plants and controls were maintained in a greenhouse for 12 to 14 days, after which time all species were compared to controls and visually evaluated. Plant response ratings, summarized in Table C, are based on a scale of 0 to 100 where 0 is no effect and 100 is complete control. A dash (-) response means no test result.

[5] = system: velvetleaf (Abutilon theophrasti); assay: Test C preemergence; details: for Plant response rating (0 to 100), Velvetleaf: Rate 250 g/ha, visual evaluation after 12 to 14 days
From the text: as §2, §3

[6] = system: johnsongrass (Sorghum halepense); assay: Test C preemergence; details: for Plant response rating (0 to 100), Johnsongrass: Rate 250 g/ha, visual evaluation after 12 to 14 days
From the text: as §2, §3

[7] = system: Surinam grass (Brachiaria decumbens); assay: Test C preemergence; details: for Plant response rating (0 to 100), Surinam grass: Rate 250 g/ha, visual evaluation after 12 to 14 days
From the text: as §2, §3

Sunflower [8] = assay: Test C preemergence
From the text: as §2, §3

[9] = system: cocklebur (Xanthium strumarium); assay: Test C preemergence; details: for Plant response rating (0 to 100), Cocklebur: Rate 250 g/ha, visual evaluation after 12 to 14 days
From the text: as §2, §3

[10] = system: lambsquarters (Chenopodium album); assay: Test C preemergence; details: for Plant response rating (0 to 100), Lambsquarters: Rate 250 g/ha, visual evaluation after 12 to 14 days
From the text: as §2, §3

Nightshade = assay: Test C preemergence
From the text: as §2, §3

soybean (Glycine max) = assay: Test C preemergence; details: for Plant response rating (0 to 100), Soybean: Rate 250 g/ha, visual evaluation after 12 to 14 days
From the text: as §2, §3

[11] = system: pigweed (Amaranthus retroflexus); assay: Test C preemergence; details: for Plant response rating (0 to 100), Pigweed: Rate 250 g/ha, visual evaluation after 12 to 14 days
From the text: as §2, §3

[12] = system: bermudagrass (Cynodon dactylon); assay: Test C preemergence; details: for Plant response rating (0 to 100 where 0 is no effect and 100 is complete control), Bermudagrass: Rate 250 g/ha, visual evaluation after 12 to 14 days
From the text: as §2, §3

[13] = system: giant foxtail (Setaria faberii); assay: Test C preemergence; details: for Plant response rating (0 to 100), Foxtail, Giant: Rate 250 g/ha, visual evaluation after 12 to 14 days
From the text: as §2, §3

[14] = system: woolly cupgrass (Eriochloa villosa); assay: Test C preemergence; details: for Plant response rating (0 to 100), Cupgrass, Woolly: Rate 250 g/ha, visual evaluation after 12 to 14 days
From the text: as §2, §3

[15] = system: common ragweed (Ambrosia elatior); assay: Test C preemergence
From the text: as §2, §3

kochia (Kochia scoparia) = assay: Test C preemergence
From the text: as §2, §3

[16] = Rate 125 g/ha, scale 0 (no effect) to 100 (complete control)
[17] = Rate 500 g/ha, scale 0 to 100, 0 is no effect, 100 is complete control
[18] = Preemergence, Rate 500 g/ha, scale 0 to 100
[19] = Rate 62 g/ha, scale 0 to 100, 0 no effect, 100 complete control
[20] = preemergence, Rate 125 g/ha, scale 0 to 100, 0 no effect, 100 complete control
[21] = Rate 125 g/ha, scale 0 to 100, 0 no effect, 100 complete control
[22] = preemergence, Rate 250 g/ha, visual evaluation after 12 to 14 days

CCC(C)c1ccn(C2SCN(c3cccc(OC(F)(F)F)c3)C2=O)n1 (stereo not drawn) [Compound 32]
50: Plant response rating (0 to 100), Corn (corn (Zea mays); preemergence) | Plant response rating, Corn (corn (Zea mays); [20]) | Plant response rating, Nightshade (Nightshade; [19]) | Plant response rating, Nightshade (Nightshade; [21]) | Plant response rating, Soybean (soybean (Glycine max); [19]) | Plant response rating, Soybean (soybean (Glycine max); [20]) | Plant response rating, Bermudagrass [12, 19] | Plant response rating, Foxtail, Giant [13, 20]
80: Plant response rating, Crabgrass [1, 16] | Plant response rating, Lambsquarters [3, 16] | Plant response rating (0 to 100), Surinam grass ([7]; preemergence) | Plant response rating, Surinam grass [7, 20] | Plant response rating, Pigweed [11, 18]
40: Plant response rating, Corn (corn (Zea mays); [19]) | Plant response rating, Velvetleaf [5, 18] | Plant response rating, Johnsongrass [6, 20]
30: Plant response rating, Johnsongrass [6, 19]
20: Plant response rating, Pigweed [11, 20]
90: Plant response rating, Lambsquarters [3, 17] | Plant response rating, Johnsongrass [6, 18] | Plant response rating (0 to 100), Johnsongrass ([6]; preemergence) | Plant response rating, Surinam grass [7, 18] | Plant response rating, Bermudagrass [12, 20] | Plant response rating, Cupgrass, Woolly [14, 18] | Plant response rating (0 to 100), Cupgrass, Woolly ([14]; preemergence) | Plant response rating (0 to 100), Ragweed, Common [15, 22]
100: Plant response rating, Crabgrass [1, 17] | Plant response rating, Lambsquarters [10, 18] | Plant response rating, Lambsquarters [10, 19] | Plant response rating (0 to 100), Lambsquarters ([10]; preemergence) | Plant response rating, Lambsquarters [10, 20] | Plant response rating, Nightshade (Nightshade; Rate 500 g/ha, scale 0 to 100) | Plant response rating, Bermudagrass [12, 18] | Plant response rating (0 to 100 where 0 is no effect and 100 is complete control), Bermudagrass ([12]; preemergence) | Plant response rating, Foxtail, Giant [13, 18] | Plant response rating (0 to 100), Foxtail, Giant ([13]; preemergence) | Plant response rating, Ragweed, Common [15, 18]
0: Plant response rating, Wild Oat (wild oat (Avena fatua); [16]) | Plant response rating, Wild Oat (wild oat (Avena fatua); [17]) | Plant response rating, Velvetleaf [5, 19] | Plant response rating (0 to 100), Velvetleaf ([5]; preemergence) | Plant response rating, Velvetleaf [5, 20] | Plant response rating, Sunflower (Sunflower [8]; [19]) | Plant response rating, Cocklebur [9, 18] | Plant response rating, Cocklebur [9, 19] | Plant response rating (0 to 100), Cocklebur ([9]; preemergence) | Plant response rating, Ragweed, Common [15, 19] | Plant response rating, Ragweed, Common [15, 20]
70: Plant response rating (0 to 100), Sunflower (Sunflower [4]) | Plant response rating, Surinam grass [7, 19] | Plant response rating, Sunflower (Sunflower [8]; Rate 500 g/ha, scale 0 to 100) | Plant response rating, Pigweed [11, 19] | Plant response rating (0 to 100), Pigweed ([11]; preemergence) | Plant response rating, Foxtail, Giant [13, 19] | Plant response rating, Cupgrass, Woolly [14, 20]
60: Plant response rating, Cocklebur [2, 16] | Plant response rating, Cocklebur [2, 17] | Plant response rating, Corn (corn (Zea mays); [18]) | Plant response rating, Soybean (soybean (Glycine max); [18]) | Plant response rating (0 to 100), Soybean (soybean (Glycine max); preemergence) | Plant response rating, Cupgrass, Woolly [14, 19]

CCC(C)c1ccn(C2SCN(c3cccc(C(F)(F)F)c3)C2=O)n1 (stereo not drawn) [Compound 20]
20: Plant response rating, Crabgrass [1, 16] | Plant response rating, Velvetleaf [5, 18] | Plant response rating (0 to 100), Velvetleaf ([5]; preemergence) | Plant response rating, Johnsongrass [6, 20]
90: Plant response rating, Cocklebur [2, 17] | Plant response rating, Lambsquarters [3, 16] | Plant response rating, Lambsquarters [3, 17] | Plant response rating, Kochia (kochia (Kochia scoparia); [19]) | Plant response rating, Lambsquarters [10, 19] | Plant response rating, Nightshade (Nightshade; Rate 500 g/ha, scale 0 to 100) | Plant response rating (0 to 100), Cupgrass, Woolly ([14]; preemergence)
30: Plant response rating, Corn (corn (Zea mays); [18]) | Plant response rating (0 to 100), Corn (corn (Zea mays); preemergence) | Plant response rating, Corn (corn (Zea mays); [20]) | Plant response rating, Nightshade (Nightshade; [19]) | Plant response rating, Pigweed [11, 20]
80: Plant response rating, Crabgrass [1, 17] | Plant response rating, Cocklebur [2, 16]
100: Plant response rating, Kochia (kochia (Kochia scoparia); [18]) | Plant response rating (0 to 100), Kochia (kochia (Kochia scoparia); [22]) | Plant response rating, Kochia (kochia (Kochia scoparia); [20]) | Plant response rating, Johnsongrass [6, 18] | Plant response rating, Lambsquarters [10, 18] | Plant response rating (0 to 100), Lambsquarters ([10]; preemergence) | Plant response rating, Lambsquarters [10, 20] | Plant response rating (0 to 100), Pigweed ([11]; preemergence) | Plant response rating, Bermudagrass [12, 18] | Plant response rating (0 to 100 where 0 is no effect and 100 is complete control), Bermudagrass ([12]; preemergence) | Plant response rating, Bermudagrass [12, 20] | Plant response rating (0 to 100), Foxtail, Giant ([13]; preemergence) | Plant response rating, Cupgrass, Woolly [14, 18]
60: Plant response rating (0 to 100), Sunflower (Sunflower [4]) | Plant response rating, Soybean (soybean (Glycine max); [18]) | Plant response rating (0 to 100), Soybean (soybean (Glycine max); preemergence) | Plant response rating, Pigweed [11, 18]
40: Plant response rating, Surinam grass [7, 18]
70: Plant response rating, Sunflower (Sunflower [8]; Rate 500 g/ha, scale 0 to 100) | Plant response rating, Nightshade (Nightshade; [21]) | Plant response rating, Bermudagrass [12, 19]
0: Plant response rating, Wild Oat (wild oat (Avena fatua); [16]) | Plant response rating, Wild Oat (wild oat (Avena fatua); [17]) | Plant response rating, Corn (corn (Zea mays); [19]) | Plant response rating, Velvetleaf [5, 19] | Plant response rating, Velvetleaf [5, 20] | Plant response rating, Johnsongrass [6, 19] | Plant response rating, Surinam grass [7, 19] | Plant response rating (0 to 100), Surinam grass ([7]; preemergence) | Plant response rating, Surinam grass [7, 20] | Plant response rating, Sunflower (Sunflower [8]; [19]) | Plant response rating, Cocklebur [9, 19] | Plant response rating (0 to 100), Cocklebur ([9]; preemergence) | Plant response rating, Cocklebur [9, 20] | Plant response rating, Soybean (soybean (Glycine max); [19]) | Plant response rating, Soybean (soybean (Glycine max); [20]) | Plant response rating, Pigweed [11, 19] | Plant response rating, Foxtail, Giant [13, 18] | Plant response rating, Foxtail, Giant [13, 19] | Plant response rating, Foxtail, Giant [13, 20] | Plant response rating, Cupgrass, Woolly [14, 19]
50: Plant response rating (0 to 100), Johnsongrass ([6]; preemergence) | Plant response rating, Cocklebur [9, 18] | Plant response rating, Cupgrass, Woolly [14, 20]

— patent US7138361B2, “Herbicidal heterocycles” (E. I. du Pont de Nemours and Company, priority 2000, dated 2006)
